Measurements from ChEMBL document CHEMBL1914350, “Convolutamines I and J, antitrypanosomal alkaloids from the bryozoan Amathia tortusa” (Bioorg Med Chem, 2011).
≈ marks a conversion by molar mass, not a printed value.

Key:
P388 = experiment: Cytotoxicity against mouse P388 cells; assay type: functional, cell-based
[1] = Antimitotic activity in sea urchins assessed as inhibition of fertilized egg cell division; assay type: functional, Echinoidea
Haemonchus contortus = experiment: Antiparasitic activity against Haemonchus contortus assessed as inhibition of free-living larval stage; assay type: functional
[2] = Selectivity index, ratio of IC50 for human HEK293 cells to IC50 for Trypanosoma brucei brucei; assay type: toxicity, cell-based; conditions: HEK293 cells versus Trypanosoma brucei brucei, read-out: Ratio IC50
[3] = Lipophilicity, log P of the compound; assay type: physicochemical; conditions: octanol/water
HEK293 [4] = experiment: Cytotoxicity against human HEK293 cells after 48 hrs by alamar blue assay; assay type: cell-based; conditions: HEK293, 48 h
[5] = system: Trypanosoma brucei brucei; experiment: Antitrypanosomal activity against Trypanosoma brucei brucei after 48 hrs by alamar blue assay; assay type: functional, organism-based
HEK293 [6] = experiment: Cytotoxicity against human HEK293 cells at 41 uM after 48 hrs by alamar blue assay; assay type: cell-based; conditions: hek293, 48 h
HEK293 [7] = experiment: Cytotoxicity against human HEK293 cells at 70 uM after 48 hrs by alamar blue assay; assay type: cell-based; conditions: hek293, 48 h

`COc1c(Br)cc(Br)c(CCN(C)CC(C)O)c1Br` (stereo unspecified) [CONVOLUTAMINE A] gave an IC50 (P388) of 1.4 µg/mL (≈ 3.04 µM).
`COc1ccc(Br)c(CCN(C)CC(C)O)c1Br` (stereo unspecified) [CONVOLUTAMINE B] showed an IC50 (P388) of 1.4 µg/mL (≈ 3.67 µM).
In the case of `COc1c(Br)cc(Br)c(CCN2COC(C)C2)c1Br` (stereo unspecified) [CONVOLUTAMINE D], the IC50 (P388) is reported as 1.4 µg/mL (≈ 3.06 µM).
Compound `CNCCc1c(Br)cc(Br)c(OC)c1Br` [CONVOLUTAMINE F] has an IC50 [1] of 81 µg/mL (≈ 202 µM).
`CNCCc1c(Br)c(Br)c(Br)c(OC)c1OC` [CONVOLUTAMINE H] showed an LD99 (Haemonchus contortus) of 0.2 µg/mL.
With `COc1c(Br)cc(Br)c(CCNCCCN(C)C)c1Br` [CONVOLUTAMINE I] the selectivity ratio [2] was 18.3, the logP [3] was 4.1 and the IC50 (HEK293 [4]) was 22 µM. The IC50 [5] was 1.1 µM.
With `COc1c(Br)cc(Br)c(CCN2C=[N+](C)CCC2)c1Br` [CONVOLUTAMINE J] the logP [3] was 3.9, the Activity (HEK293 [6]) was “Non-toxic” and the IC50 [5] was 13.7 µM.
For `N=C(N)c1ccc(/N=N/Nc2ccc(C(=N)N)cc2)cc1` [DIMINAZENE], the Activity (HEK293 [7]) was “Non-toxic” and the IC50 [5] was 0.0701 µM.
Compound `N=C(N)c1ccc(OCCCCCOc2ccc(C(=N)N)cc2)cc1` [PENTAMIDINE] has an IC50 (HEK293 [4]) of 71 µM and an IC50 [5] of 0.0151 µM.
